# Assay results published in article PMC2151668 (The Journal of General Physiology, 2007).
# Where two headings read alike, the source gives them in different places. Peptide text beside a SMILES is read from it.
# How the values were obtained:
# [1] = Acrylamide quenching of W30 tryptophan fluorescence; assay type: physicochemical
# [2] = for F/F0 max: 1:1 POPG:POPC LUVs; for F/F0 max / λmax: HEB, 100 mM K+
# Kv2.1 channel = target: T1, Kv2.1 channel (Rattus norvegicus, UniProt P15387, A366D/I383M/K360G/K386V/S367A/T359S/Y384T); experiment: Two-electrode voltage-clamp recording of Kv2.1 expressed in oocytes; assay type: cell-based
# T1 sequence (P15387 1-857 T359S/K360G/A366D/S367A/I383M/Y384T/K386V): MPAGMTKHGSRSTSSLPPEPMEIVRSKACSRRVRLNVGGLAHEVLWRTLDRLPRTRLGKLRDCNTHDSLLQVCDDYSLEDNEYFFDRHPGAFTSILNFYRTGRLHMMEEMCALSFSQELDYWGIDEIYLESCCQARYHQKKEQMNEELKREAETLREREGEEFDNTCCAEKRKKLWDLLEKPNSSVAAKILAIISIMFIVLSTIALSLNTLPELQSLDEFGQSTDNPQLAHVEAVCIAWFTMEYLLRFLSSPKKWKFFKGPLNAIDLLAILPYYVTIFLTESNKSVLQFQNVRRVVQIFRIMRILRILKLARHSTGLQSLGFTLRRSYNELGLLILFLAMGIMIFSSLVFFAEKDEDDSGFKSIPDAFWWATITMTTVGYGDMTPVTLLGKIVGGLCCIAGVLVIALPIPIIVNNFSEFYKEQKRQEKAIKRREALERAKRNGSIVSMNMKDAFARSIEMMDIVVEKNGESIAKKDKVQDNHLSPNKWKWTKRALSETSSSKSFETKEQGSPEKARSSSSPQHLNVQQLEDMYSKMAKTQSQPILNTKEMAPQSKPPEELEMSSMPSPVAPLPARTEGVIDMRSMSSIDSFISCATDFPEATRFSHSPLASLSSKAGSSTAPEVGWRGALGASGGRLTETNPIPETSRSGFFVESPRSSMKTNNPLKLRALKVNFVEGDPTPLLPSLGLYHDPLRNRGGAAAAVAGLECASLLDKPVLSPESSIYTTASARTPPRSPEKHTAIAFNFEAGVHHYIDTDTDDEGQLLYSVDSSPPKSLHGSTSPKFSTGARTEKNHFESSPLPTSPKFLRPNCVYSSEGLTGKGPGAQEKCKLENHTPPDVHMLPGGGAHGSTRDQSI
# [3] = toxin:lipid 2 μM:0.9 mM, HEB pH 7, n = 3
structure (smiles),measurement,setting,value
"CC(C)C[C@@H]1NC(=O)[C@H](Cc2c[nH]cn2)NC(=O)[C@H](CCCCN)NC(=O)[C@@H]2CSSC[C@H](NC(=O)[C@@H](N)CCC(=O)O)C(=O)N[C@@H](CCCNC(=N)N)C(=O)N[C@@H](Cc3ccc(O)cc3)C(=O)N[C@@H](CC(C)C)C(=O)N[C@@H](Cc3ccccc3)C(=O)NCC(=O)NCC(=O)N[C@H]3CSSC[C@H](NC(=O)CNC1=O)C(=O)N[C@@H](CCCCN)C(=O)N[C@@H](Cc1ccccc1)C(=O)N[C@@H](CCCNC(=N)N)C(=O)N[C@@H](CC(=O)O)C(=O)N[C@@H](CCCCN)C(=O)N[C@@H](Cc1ccc(O)cc1)C(=O)N[C@H](C(=O)N[C@@H](C)C(=O)N[C@@H](Cc1c[nH]c4ccccc14)C(=O)N[C@@H](CC(=O)O)C(=O)N[C@@H](Cc1ccccc1)C(=O)N[C@H](C(=O)N[C@@H](Cc1ccccc1)C(=O)N[C@@H](CO)C(=O)O)[C@@H](C)O)CSSC[C@H](NC(=O)[C@H](CC(=O)O)NC(=O)[C@H](CO)NC(=O)[C@H]([C@@H](C)O)NC(=O)[C@H]([C@@H](C)O)NC(=O)[C@H](CCCCN)NC3=O)C(=O)N2 [Hanatoxin] (HELM PEPTIDE1{E.C.R.Y.L.F.G.G.C.K.T.T.S.D.C.C.K.H.L.G.C.K.F.R.D.K.Y.C.A.W.D.F.T.F.S}$PEPTIDE1,PEPTIDE1,2:R3-16:R3|PEPTIDE1,PEPTIDE1,9:R3-21:R3|PEPTIDE1,PEPTIDE1,15:R3-28:R3$$$V2.0; N-terminus and C-terminus assumed)","Stern-Volmer constant (KSV), Solution","[1]; toxin 2 μM in solution, no lipid vesicles, n = 3",48 ± 3 M⁻¹
same,"Stern-Volmer constant (KSV), POPC, HEB",[1]; [3],10 ± 0.5 M⁻¹
same,"Stern-Volmer constant (KSV), POPC:POPG, HEB",[1]; [3],7 ± 0.1 M⁻¹
same,"Stern-Volmer constant (KSV), POPC:POPG, PB","[1]; toxin:lipid 2 μM:0.9 mM, PB (10 mM HEPES, 100 mM KCl, 1 mM MgCl2, 0.3 mM CaCl2, pH 7.6), n = 3",18 ± 0.2 M⁻¹
same,"Stern-Volmer constant (KSV), POPC, PB","[1]; toxin:lipid 2 μM:0.9 mM, PB pH 7.6, n = 3",23 ± 0.7 M⁻¹
same,F/F0 max,"[2]; 1 mM free Ca2+, n = 3",2.1 ± 0.1
same,F/F0 max,"[2]; pH 7, n = 3",2.0 ± 0.02
same,λmax,"[2]; +POPG:POPC vesicles, 1 mM free Ca2+",350.0 nm
same,λmax,"[2]; +POPG:POPC vesicles, pH 7",344.3 nm
same,Kx,"[2]; as printed in legend, anionic vesicles, HEB with 100 mM KCl, n = 3",(5.3 ± 0.03) × 10^5
same,λmax,"[2]; toxin in solution without lipid, 1 mM free Ca2+",353.7 nm
same,blue shift in fluorescence emission spectrum,"[2]; upon addition of 1:1 POPC:POPG vesicles (2.4 mM), HEB pH 7",10.9 nm
same,effect on Kv2.1 channel opening,"Kv2.1 channel; 4 μM hanatoxin in external solution, oocytes, n = 3",pronounced inhibition of opening at negative voltages
same,time for channel activity to recover to control values after toxin removal,"Kv2.1 channel; control (untreated) oocytes, 500 nM hanatoxin","~1,000 s"
